Laboratory results: US20210395262A1, “INHIBITORS OF HUMAN IMMUNODEFICIENCY VIRUS REPLICATION” (ViiV HEALTHCARE UK (NO.5) LIMITED, priority 2018, published 2021)

Legend:
recombinant NL4-3 virus = assay: HIV cell culture assay (antiviral activity, luciferase readout in MT-2 cells); type: cell-based; conditions: Human immunodeficiency virus 1, NL43, MT2
Protocol: HIV cell culture assay—MT-2 cells, 293T cells and the proviral DNA clone of NL4-3 virus were obtained from the […] AIDS Research and Reference Reagent Program. MT-2 cells were propagated in RPMI 1640 media supplemented with 10% heat inactivated fetal bovine serum (FBS), […] penicillin G and up to 100 units/mL streptomycin. The 293T cells were propagated in DMEM media supplemented with 10% heat inactivated FBS, […] penicillin G and […] streptomycin. A recombinant NL4-3 proviral clone, in which a section of the nef gene was replaced with the Renilla luciferase gene, was used to make the reference virus used in these studies. The recombinant virus was prepared through transfection of the recombinant NL4-3 proviral clone into 293T cells using Transit-293 Transfection Reagent from Mirus Bio LLC (Madison, Wis.). Supernatent was harvested after 2-3 days and the amount of virus present was titered in MT-2 cells using luciferase enzyme activity as a marker by measuring luciferase enzyme activity. Luciferase was quantitated using the EnduRen Live Cell Substrate from Promega (Madison, Wis.). Antiviral activities of compounds toward the recombinant virus were quantified by measuring luciferase activity in MT-2 cells infected for 4-5 days with the recombinant virus in the presence of serial dilutions of the compound.
The 50% effective concentration (EC50) was calculated by using the exponential form of the median effect equation where (Fa)=1/[1+(ED50/drug conc.)m] (Johnson V A, Byington R T. Infectivity Assay. In Techniques in HIV Research. ed. Aldovini A, Walker B D. 71-76. New York: Stockton Press. 1990). The 50% inhibitory concentration (EC50) was calculated by using the exponential form of the median effect equation where percent inhibition=1/[1+(EC50/drug concentration)m], where m is a parameter that reflects the slope of the concentration-response curve.

[1] = Compound cytotoxicity, XTT-based colorimetric assay; type: cell-based; conditions: human; uninfected MT2 cells, day 4, XTT; read-out: CC50
Protocol: Compound cytotoxicity and the corresponding CC50 values were determined using the same protocol as described in the antiviral assay except that uninfected cells were used. Cytotoxicity was assessed on day 4 in uninfected MT2 cells by using a XTT (2,3-bis[2-Methoxy-4-nitro-5-sulfophenyl]-2H-tetrazolium-5-carboxyanilide inner salt)-based colorimetric assay (Sigma-Aldrich, St Louis, Mo.).

Structure (SMILES)	EC50 (recombinant NL4-3 virus)	CC50 at 4 days [1]
COC1CCN(c2ccc3c(=O)n(-c4ccc(Cl)c5c(NS(C)(=O)=O)nn(C)c45)c([C@H](Cc4cc(F)cc(F)c4)NC(=O)Cn4nc(C(F)F)c5c4C(F)(F)[C@@H]4C[C@H]54)nc3c2)CC1 (atropisomer, axis not shown; (P)) [Example 28, N—((S)-1-((3P)-3-(4-chloro-1-methyl-3-(methylsulfonamido)-1H-indazol-7-yl)-7-(4-methoxypiperidin-1-yl)-4-oxo-3,4-dihydroquinazolin-2-yl)-2-(3,5-difluorophenyl)ethyl)-2-((3bS,4aR)-3-(difluoromethyl)-5,5-difluoro-3b,4,4a,5-tetrahydro-1H-cyclopropa[3,4]cyclopenta[1,2-c]pyrazol-1-yl)acetamide]	0.12 nM	> 500 nM
CS(=O)(=O)Nc1nn(CC(F)F)c2c(-n3c([C@H](Cc4cc(F)cc(F)c4)NC(=O)Cn4nc(C(F)F)c5c4C(F)(F)[C@@H]4C[C@H]54)nc4cc(N5CCOCC5)ccc4c3=O)ccc(Cl)c12 (atropisomer, axis not shown; (P)) [Example 7, N—((S)-1-((3P)-3-(4-chloro-1-(2,2-difluoroethyl)-3-(methylsulfonamido)-1H-indazol-7-yl)-7-morpholino-4-oxo-3,4-dihydroquinazolin-2-yl)-2-(3,5-difluorophenyl)ethyl)-2-((3bS,4aR)-3-(difluoromethyl)-5,5-difluoro-3b,4,4a,5-tetrahydro-1H-cyclopropa[3,4]cyclopenta[1,2-c]pyrazol-1-yl)acetamide]	0.085 nM	> 500 nM
Cn1nc(NS(C)(=O)=O)c2c(Cl)ccc(-n3c([C@H](Cc4cc(F)cc(F)c4)NC(=O)Cn4nc(C(F)F)c5c4C(F)(F)[C@@H]4C[C@H]54)nc4cc(N5CCCCCC5)ccc4c3=O)c21 (atropisomer, axis not shown; (P)) [Example 2, N—((S)-1-(7-(azepan-1-yl)-(3P)-3-(4-chloro-1-methyl-3-(methylsulfonamido)-1H-indazol-7-yl)-4-oxo-3,4-dihydroquinazolin-2-yl)-2-(3,5-difluorophenyl)ethyl)-2-((3bS,4aR)-3-(difluoromethyl)-5,5-difluoro-3b,4,4a,5-tetrahydro-1H-cyclopropa[3,4]cyclopenta[1,2-c]pyrazol-1-yl)acetamide]	0.243 nM	> 500 nM
C[C@@H]1CN(c2ccc3c(=O)n(-c4ccc(Cl)c5c(NS(C)(=O)=O)nn(CC(F)F)c45)c([C@H](Cc4cc(F)cc(F)c4)NC(=O)Cn4nc(C(F)(F)F)c5ccccc54)nc3c2)C[C@H](C)O1 (atropisomer, axis not shown; (P)) [Example 43, N—((S)-1-((3P)-3-(4-chloro-1-(2,2-difluoroethyl)-3-(methylsulfonamido)-1H-indazol-7-yl)-7-((2S,6R)-2,6-dimethylmorpholino)-4-oxo-3,4-dihydroquinazolin-2-yl)-2-(3,5-difluorophenyl)ethyl)-2-(3-(trifluoromethyl)-1H-indazol-1-yl)acetamide]	1.2 nM	> 500 nM
C[C@@H]1CN(c2ccc3c(=O)n(-c4ccc(Cl)c5c(NS(=O)(=O)C6CC6)nn(CC(F)(F)F)c45)c([C@H](Cc4cc(F)cc(F)c4)NC(=O)Cn4nc(C(F)(F)F)c5c4C(F)(F)[C@@H]4C[C@H]54)nc3c2)C[C@H](C)O1 (atropisomer, axis not shown; (P)) [Example 63, N—((S)-1-((3P)-3-(4-chloro-3-(cyclopropanesulfonamido)-1-(2,2,2-trifluoroethyl)-1H-indazol-7-yl)-7-((2S,6R)-2,6-dimethylmorpholino)-4-oxo-3,4-dihydroquinazolin-2-yl)-2-(3,5-difluorophenyl)ethyl)-2-((3bS,4aR)-5,5-difluoro-3-(trifluoromethyl)-3b,4,4a,5-tetrahydro-1H-cyclopropa[3,4]cyclopenta[1,2-c]pyrazol-1-yl)acetamide]	0.15 nM	> 500 nM
C[C@@H]1CN(c2ccc3c(=O)n(-c4ccc(Cl)c5c(NS(C)(=O)=O)nn(CC(F)F)c45)c([C@H](Cc4cc(F)cc(F)c4)NC(=O)Cc4cn(C5CC5)c5ccccc45)nc3c2)C[C@H](C)O1 [Example 52, N—((S)-1-((3P)-3-(4-chloro-1-(2,2-difluoroethyl)-3-(methylsulfonamido)-1H-indazol-7-yl)-7-((2S,6R)-2,6-dimethylmorpholino)-4-oxo-3,4-dihydroquinazolin-2-yl)-2-(3,5-difluorophenyl)ethyl)-2-(1-cyclopropyl-1H-indol-3-yl)acetamide]	1.1 nM	> 500 nM
C[C@@H]1CN(c2ccc3c(=O)n(-c4ccc(Cl)c5c(NS(C)(=O)=O)nn(CC(F)(F)F)c45)c([C@H](Cc4cc(F)cc(F)c4)NC(=O)Cn4nc(C5CC5)cc4C(F)F)nc3c2)C[C@H](C)O1 (atropisomer, axis not shown; (P)) [Example 60, N—((S)-1-((3P)-3-(4-chloro-3-(methylsulfonamido)-1-(2,2,2-trifluoroethyl)-1H-indazol-7-yl)-7-((2S,6R)-2,6-dimethylmorpholino)-4-oxo-3,4-dihydroquinazolin-2-yl)-2-(3,5-difluorophenyl)ethyl)-2-(3-cyclopropyl-5-(difluoromethyl)-1H-pyrazol-1-yl)acetamide]	0.36 nM	> 500 nM
Cn1nc(NS(C)(=O)=O)c2c(Cl)ccc(-n3c([C@H](Cc4cc(F)cc(F)c4)NC(=O)Cn4nc(C(F)F)c5c4C(F)(F)[C@@H]4C[C@H]54)nc4cc(N5CC6CCC(C5)O6)ccc4c3=O)c21 [Example 27, N—((S)-1-(7-((1R,5S)-8-oxa-3-azabicyclo[3.2.1]octan-3-yl)-(3P)-3-(4-chloro-1-methyl-3-(methylsulfonamido)-1H-indazol-7-yl)-4-oxo-3,4-dihydroquinazolin-2-yl)-2-(3,5-difluorophenyl)ethyl)-2-((3bS,4aR)-3-(difluoromethyl)-5,5-difluoro-3b,4,4a,5-tetrahydro-1H-cyclopropa[3,4]cyclopenta[1,2-c]pyrazol-1-yl)acetamide]	0.051 nM	> 500 nM
Cn1nc(NS(C)(=O)=O)c2c(Cl)ccc(-n3c([C@H](Cc4cc(F)cc(F)c4)NC(=O)Cn4nc(C(F)F)c5c4C(F)(F)[C@@H]4C[C@H]54)nc4cc(N5CCC(S(C)(=O)=O)CC5)ccc4c3=O)c21 (atropisomer, axis not shown; (P)) [Example 30, N—((S)-1-((3P)-3-(4-chloro-1-methyl-3-(methylsulfonamido)-1H-indazol-7-yl)-7-(4-(methylsulfonyl)piperidin-1-yl)-4-oxo-3,4-dihydroquinazolin-2-yl)-2-(3,5-difluorophenyl)ethyl)-2-((3bS,4aR)-3-(difluoromethyl)-5,5-difluoro-3b,4,4a,5-tetrahydro-1H-cyclopropa[3,4]cyclopenta[1,2-c]pyrazol-1-yl)acetamide]	0.381 nM	> 500 nM
O=C(Cn1nc(C(F)F)c2c1C(F)(F)[C@@H]1C[C@H]21)N[C@@H](Cc1cc(F)cc(F)c1)c1nc2cc(N3CCOCC3)ccc2c(=O)n1-c1ccc(Cl)c2c(NS(=O)(=O)C3CC3)nn(CC(F)F)c12 (atropisomer, axis not shown; (P)) [Example 9, N—((S)-1-((3P)-3-(4-chloro-3-(cyclopropanesulfonamido)-1-(2,2-difluoroethyl)-1H-indazol-7-yl)-7-morpholino-4-oxo-3,4-dihydroquinazolin-2-yl)-2-(3,5-difluorophenyl)ethyl)-2-((3bS,4aR)-3-(difluoromethyl)-5,5-difluoro-3b,4,4a,5-tetrahydro-1H-cyclopropa[3,4]cyclopenta[1,2-c]pyrazol-1-yl)acetamide]	0.086 nM	> 500 nM
CC(C(=O)N[C@@H](Cc1cc(F)cc(F)c1)c1nc2cc(N3C[C@@H](C)O[C@@H](C)C3)ccc2c(=O)n1-c1ccc(Cl)c2c(NS(C)(=O)=O)nn(CC(F)F)c12)n1nc(C(F)(F)F)cc1C1CC1 (stereo partly drawn) [Example 55]	4.3 nM	> 500 nM
Cn1nc(NS(C)(=O)=O)c2c(Cl)ccc(-n3c([C@H](Cc4cc(F)cc(F)c4)NC(=O)Cn4nc(C(F)F)c5c4C(F)(F)[C@@H]4C[C@H]54)nc4cc(N5CCCOCC5)ccc4c3=O)c21 (atropisomer, axis not shown; (P)) [Example 17, N—((S)-1-((3P)-3-(4-chloro-1-methyl-3-(methylsulfonamido)-1H-indazol-7-yl)-7-(1,4-oxazepan-4-yl)-4-oxo-3,4-dihydroquinazolin-2-yl)-2-(3,5-difluorophenyl)ethyl)-2-((3bS,4aR)-3-(difluoromethyl)-5,5-difluoro-3b,4,4a,5-tetrahydro-1H-cyclopropa[3,4]cyclopenta[1,2-c]pyrazol-1-yl)acetamide]	0.069 nM	> 1000 nM
